We go through 12 compounds from patent US20240382483A1, “HETEROCYCLIC EGFR INHIBITORS FOR USE IN THE TREATMENT OF CANCER” (Blueprint Medicines Corporation, priority 2021, published 2024).

One may read the IC50 as the concentration that gives 50% inhibition.

Assay [1] concerns the target T1, intracellular phosphorylation of EGFR in NCI-H1975 cell line that harbors the EGFR L858R T790M mutations (Homo sapiens, UniProt P00533, L858R/T790M).
T1 construct: NCI-H1975 cell line that harbors the EGFR L858R T790M mutations (ATCC, CRL-5908); host or cells: NCI-H1975
Description: NCI-H1975 pEGFR AlphaLISA assay. The assay is classed as cell-based. The note with it: NCI-H1975 cells (EGFR L858R T790M), p-EGFR (Tyr1068), 4-5 hours incubation; read-out: Ext pEGFR H1975 GMean IC50 (nM) Protocol: @Pharmaron AlphaLISA (Num). How it is done: On the next day, the test compounds and DMSO control were added into H1975 cell plate followed by incubation at 37C/5% CO2 for 4-5 hours. […] Then 5 μL of a donor bead mix was added to each well followed by overnight incubation at room temperature in dark. On the next day, the plate was read at a compatible plate reader to obtain pEGFR signal. Percent of pEGFR inhibition was plotted against log concentration of compounds to generate IC50 values.
In general terms: Alpha assays give light when donor and acceptor beads are brought close together.

The target of a further assay is T2, EGFR (L858R T790M C797S) (Homo sapiens, UniProt P00533, C797S/L858R/T790M).
T2 construct: purchased SignalChem E10-122VG
Briefly: Biochemical EGFR inhibition assay (Caliper mobility shift), EGFR LRTMCS. The procedure, abridged:
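Apparent IC50s were derived by plotting percent activity against the log of compound concentration. Activity was measured as phosphopeptide electrophoretically separated from substrate, after reactions at room temperature reached 10% to 20% phosphorylation and were halted with 35 mM EDTA.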

The mark [2] stands for this setting: LRTMCS (PH) IC50 (nM) @ 1 mM ATP (Num), EGFR LRTMCS mutant.

Read-outs that look alike come from different tables or passages of the source. A value given as a limit tells only on which side of the number the result lay.

T2 sequence (P00533 25-1210 T790M/C797S/L858R): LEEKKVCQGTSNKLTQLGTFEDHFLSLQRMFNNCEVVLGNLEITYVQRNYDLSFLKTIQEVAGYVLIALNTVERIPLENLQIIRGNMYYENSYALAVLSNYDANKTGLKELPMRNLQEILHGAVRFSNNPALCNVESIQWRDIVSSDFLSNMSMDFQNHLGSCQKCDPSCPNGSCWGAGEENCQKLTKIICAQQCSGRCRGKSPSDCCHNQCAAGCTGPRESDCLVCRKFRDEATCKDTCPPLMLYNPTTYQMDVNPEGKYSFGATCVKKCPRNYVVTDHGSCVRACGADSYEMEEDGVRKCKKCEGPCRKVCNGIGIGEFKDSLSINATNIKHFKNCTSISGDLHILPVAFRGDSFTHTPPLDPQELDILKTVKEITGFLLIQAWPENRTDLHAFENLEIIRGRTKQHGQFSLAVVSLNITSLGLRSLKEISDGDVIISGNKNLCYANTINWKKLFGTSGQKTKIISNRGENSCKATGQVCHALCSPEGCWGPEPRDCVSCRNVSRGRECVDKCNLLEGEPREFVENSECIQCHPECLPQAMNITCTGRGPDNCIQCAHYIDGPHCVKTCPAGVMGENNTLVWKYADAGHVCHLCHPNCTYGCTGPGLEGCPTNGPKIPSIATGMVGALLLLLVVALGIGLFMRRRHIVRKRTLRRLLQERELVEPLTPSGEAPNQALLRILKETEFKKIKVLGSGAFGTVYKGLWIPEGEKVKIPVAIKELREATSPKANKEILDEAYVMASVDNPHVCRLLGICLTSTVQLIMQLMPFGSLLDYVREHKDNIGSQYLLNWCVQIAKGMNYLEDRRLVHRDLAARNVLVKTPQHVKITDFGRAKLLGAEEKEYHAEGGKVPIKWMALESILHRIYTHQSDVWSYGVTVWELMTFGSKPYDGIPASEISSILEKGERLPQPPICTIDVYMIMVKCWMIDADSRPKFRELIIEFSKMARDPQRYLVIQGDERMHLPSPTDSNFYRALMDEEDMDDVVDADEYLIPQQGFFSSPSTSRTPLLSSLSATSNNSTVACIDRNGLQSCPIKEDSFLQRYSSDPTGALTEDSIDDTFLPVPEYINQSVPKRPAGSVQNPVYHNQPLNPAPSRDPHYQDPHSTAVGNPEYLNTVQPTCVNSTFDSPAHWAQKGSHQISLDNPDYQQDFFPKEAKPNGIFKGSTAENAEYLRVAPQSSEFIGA
T1 sequence (P00533 25-1210 T790M/L858R): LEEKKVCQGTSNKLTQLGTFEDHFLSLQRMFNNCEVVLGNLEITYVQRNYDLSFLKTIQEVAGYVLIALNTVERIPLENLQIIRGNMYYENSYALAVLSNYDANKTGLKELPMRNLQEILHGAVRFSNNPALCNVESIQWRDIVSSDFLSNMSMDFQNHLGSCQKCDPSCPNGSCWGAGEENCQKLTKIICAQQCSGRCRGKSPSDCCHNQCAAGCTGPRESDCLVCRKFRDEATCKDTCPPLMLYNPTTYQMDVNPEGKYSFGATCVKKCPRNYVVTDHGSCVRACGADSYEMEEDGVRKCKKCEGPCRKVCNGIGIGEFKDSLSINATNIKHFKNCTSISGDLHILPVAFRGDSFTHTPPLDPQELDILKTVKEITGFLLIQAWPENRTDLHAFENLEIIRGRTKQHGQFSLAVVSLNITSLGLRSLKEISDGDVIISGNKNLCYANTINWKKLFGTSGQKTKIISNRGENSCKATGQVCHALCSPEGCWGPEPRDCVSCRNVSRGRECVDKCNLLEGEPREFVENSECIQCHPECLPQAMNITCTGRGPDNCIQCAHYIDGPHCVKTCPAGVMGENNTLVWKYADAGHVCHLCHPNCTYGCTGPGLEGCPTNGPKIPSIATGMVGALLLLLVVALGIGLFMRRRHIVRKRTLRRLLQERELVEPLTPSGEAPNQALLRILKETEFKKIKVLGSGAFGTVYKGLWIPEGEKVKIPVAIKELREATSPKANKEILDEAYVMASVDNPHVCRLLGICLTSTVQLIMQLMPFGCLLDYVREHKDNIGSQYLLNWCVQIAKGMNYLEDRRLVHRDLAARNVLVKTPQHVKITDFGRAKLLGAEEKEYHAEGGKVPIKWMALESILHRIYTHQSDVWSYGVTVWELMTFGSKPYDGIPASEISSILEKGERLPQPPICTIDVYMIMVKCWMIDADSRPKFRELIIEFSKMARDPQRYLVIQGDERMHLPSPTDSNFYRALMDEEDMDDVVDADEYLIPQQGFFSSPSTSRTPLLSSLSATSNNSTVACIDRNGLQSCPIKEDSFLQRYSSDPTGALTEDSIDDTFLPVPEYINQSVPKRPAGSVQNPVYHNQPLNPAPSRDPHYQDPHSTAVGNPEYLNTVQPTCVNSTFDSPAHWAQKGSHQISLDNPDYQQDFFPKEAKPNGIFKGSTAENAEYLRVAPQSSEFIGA

On to `CC(C)c1cnc(N2C[C@H](O)[C@H]2C)c2cnc(Nc3ccnc(N4CC[C@@](C)(O)[C@@H](F)C4)n3)cc12` (single isomer, unassigned) [Example 173, (3S,4R)-3-fluoro-1-(4-((8-((2R,3S)-3-hydroxy-2-methylazetidin-1-yl)-5-isopropyl-2,7-naphthyridin-3-yl)amino)pyrimidin-2-yl)-4-methylpiperidin-4-ol or (3R,4S)-3-fluoro-1-(4-((8-((2R,3S)-3-hydroxy-2-methylazetidin-1-yl)-5-isopropyl-2,7-naphthyridin-3-yl)amino)pyrimidin-2-yl)-4-methylpiperidin-4-ol], for which the results for the IC50 (in assay [1]; on EGFR (L858R T790M C797S) (setting [2])) were 30 to 50 nM and below 15 nM, respectively.

`CC(C)c1cnc(N2CC3(CCS3(=O)=O)C2)c2cnc(Nc3ccnc(N4CC[C@@](C)(O)[C@@H](F)C4)n3)cc12` (single isomer, unassigned) [Example 174, 6-(6-((2-((3S,4R)-3-fluoro-4-hydroxy-4-methylpiperidin-1-yl)pyrimidin-4-yl)amino)-4-isopropyl-2,7-naphthyridin-1-yl)-1-thia-6-azaspiro[3.3]heptane 1,1-dioxide or 6-(6-((2-((3R,4S)-3-fluoro-4-hydroxy-4-methylpiperidin-1-yl)pyrimidin-4-yl)amino)-4-isopropyl-2,7-naphthyridin-1-yl)-1-thia-6-azaspiro[3.3]heptane 1,1-dioxide]: the values for the IC50 (in assay [1]; at EGFR (L858R T790M C797S) (setting [2])) were above 50 nM and 20 to 30 nM, respectively.

For the compound `CC(C)c1cnc(N2CC3(CCS3(=O)=O)C2)c2cnc(Nc3ccnc(N4CC[C@@](C)(O)[C@@H](F)C4)n3)cc12` (single isomer, unassigned) [Example 175, 6-(6-((2-((3S,4R)-3-fluoro-4-hydroxy-4-methylpiperidin-1-yl)pyrimidin-4-yl)amino)-4-isopropyl-2,7-naphthyridin-1-yl)-1-thia-6-azaspiro[3.3]heptane 1,1-dioxide or 6-(6-((2-((3R,4S)-3-fluoro-4-hydroxy-4-methylpiperidin-1-yl)pyrimidin-4-yl)amino)-4-isopropyl-2,7-naphthyridin-1-yl)-1-thia-6-azaspiro[3.3]heptane 1,1-dioxide], the IC50 was above 50 nM in assay [1] and below 15 nM at EGFR (L858R T790M C797S) (setting [2]).

In the case of `C[C@H](c1cnc(N2CC[C@H]2C)c2cnc(Nc3ccnc(N4CC[C@@H](O)[C@@](C)(F)C4)n3)cc12)C1COC1` (single isomer, unassigned) [Example 176, (3S,4R)-3-fluoro-3-methyl-1-(4-((8-((R)-2-methylazetidin-1-yl)-5-((S)-1-(oxetan-3-yl)ethyl)-2,7-naphthyridin-3-yl)amino)pyrimidin-2-yl)piperidin-4-ol or (3S,4R)-3-fluoro-3-methyl-1-(4-((8-((R)-2-methylazetidin-1-yl)-5-((R)-1-(oxetan-3-yl)ethyl)-2,7-naphthyridin-3-yl)amino)pyrimidin-2-yl)piperidin-4-ol], the IC50 is 20 to 30 nM in assay [1] and below 15 nM at EGFR (L858R T790M C797S) (setting [2]).

For `C[C@H](c1cnc(N2CC[C@H]2C)c2cnc(Nc3ccnc(N4CC[C@@H](O)[C@@](C)(F)C4)n3)cc12)C1COC1` (single isomer, unassigned) [Example 177, (3S,4R)-3-fluoro-3-methyl-1-(4-((8-((R)-2-methylazetidin-1-yl)-5-((S)-1-(oxetan-3-yl)ethyl)-2,7-naphthyridin-3-yl)amino)pyrimidin-2-yl)piperidin-4-ol or (3S,4R)-3-fluoro-3-methyl-1-(4-((8-((R)-2-methylazetidin-1-yl)-5-((R)-1-(oxetan-3-yl)ethyl)-2,7-naphthyridin-3-yl)amino)pyrimidin-2-yl)piperidin-4-ol], the IC50 is 20 to 30 nM in assay [1] and below 15 nM at EGFR (L858R T790M C797S) (read-out: LRTMCS (PH) IC50 (nM) @ 1 mM ATP (Num), EGFR LRTMCS mutant).

For `C[C@H](CO)c1ncc(N2CC[C@H]2C)c2cnc(Nc3ccnc(N4CC[C@@H](O)[C@@](C)(F)C4)n3)cc12` (single isomer, unassigned) [Example 178, (3S,4R)-3-fluoro-1-(4-((5-((S)-1-hydroxypropan-2-yl)-8-((R)-2-methylazetidin-1-yl)-2,6-naphthyridin-3-yl)amino)pyrimidin-2-yl)-3-methylpiperidin-4-ol or (3S,4R)-3-fluoro-1-(4-((5-((R)-1-hydroxypropan-2-yl)-8-((R)-2-methylazetidin-1-yl)-2,6-naphthyridin-3-yl)amino)pyrimidin-2-yl)-3-methylpiperidin-4-ol], the IC50 in assay [1] was above 50 nM; at EGFR (L858R T790M C797S) (setting [2]), 20 to 30 nM.

Regarding `CC(C)c1cnc(N2CC[C@H]2C)c2cnc(Nc3cnnc(N4CC[C@@H](O)[C@@](C)(F)C4)n3)cc12` (single isomer, unassigned) [Example 179, (3S,4R)-3-fluoro-1-(5-((5-isopropyl-8-((R)-2-methylazetidin-1-yl)-2,7-naphthyridin-3-yl)amino)-1,2,4-triazin-3-yl)-3-methylpiperidin-4-ol or (3R,4S)-3-fluoro-1-(5-((5-isopropyl-8-((R)-2-methylazetidin-1-yl)-2,7-naphthyridin-3-yl)amino)-1,2,4-triazin-3-yl)-3-methylpiperidin-4-ol], the IC50 is 10 to 20 nM in assay [1] and below 15 nM at EGFR (L858R T790M C797S) (setting [2]).

Turning to `COC1CN(c2ccc([C@@H](C)CO)c3cc(Nc4ccnc(N5CC[C@@H](O)[C@@](C)(F)C5)n4)ncc23)C1` (single isomer, unassigned) [Example 180, (3S,4R)-3-fluoro-1-(4-((5-((R)-1-hydroxypropan-2-yl)-8-(3-methoxyazetidin-1-yl)isoquinolin-3-yl)amino)pyrimidin-2-yl)-3-methylpiperidin-4-ol or (3S,4R)-3-fluoro-1-(4-((5-((S)-1-hydroxypropan-2-yl)-8-(3-methoxyazetidin-1-yl)isoquinolin-3-yl)amino)pyrimidin-2-yl)-3-methylpiperidin-4-ol], the IC50 is above 50 nM in assay [1] and 30 to 100 nM on EGFR (L858R T790M C797S) (setting [2]).

For the compound `CCc1cnc(N2CC[C@@H]2C)c2cnc(Nc3ccnc(N4CC[C@@H](O)[C@@](C)(F)C4)n3)cc12` (single isomer, unassigned) [Example 181, (3S,4R)-1-(4-((5-ethyl-8-((S)-2-methylazetidin-1-yl)-2,7-naphthyridin-3-yl)amino)pyrimidin-2-yl)-3-fluoro-3-methylpiperidin-4-ol or (3S,4R)-1-(4-((5-ethyl-8-((R)-2-methylazetidin-1-yl)-2,7-naphthyridin-3-yl)amino)pyrimidin-2-yl)-3-fluoro-3-methylpiperidin-4-ol], the IC50 in assay [1] lay within 30 to 50 nM; at EGFR (L858R T790M C797S) (setting [2]), 15 to 20 nM.

Turning to `CCOc1cnc(N2CC[C@@H]2C)c2cnc(Nc3ccnc(N4CC[C@@H](O)[C@@](C)(F)C4)n3)cc12` (single isomer, unassigned) [Example 182, (3S,4R)-1-(4-((5-ethoxy-8-((S)-2-methylazetidin-1-yl)-2,7-naphthyridin-3-yl)amino)pyrimidin-2-yl)-3-fluoro-3-methylpiperidin-4-ol or (3S,4R)-1-(4-((5-ethoxy-8-((R)-2-methylazetidin-1-yl)-2,7-naphthyridin-3-yl)amino)pyrimidin-2-yl)-3-fluoro-3-methylpiperidin-4-ol], the IC50 in assay [1] was above 50 nM; on EGFR (L858R T790M C797S) (setting [2]), 30 to 100 nM.

Take `C[C@@H]1CCN1c1ncc([C@@H](C)OCC2COC2)c2cc(Nc3ccnc(N4CC[C@@H](O)[C@@](C)(F)C4)n3)ncc12` (single isomer, unassigned) [Example 183, (3S,4R)-3-fluoro-3-methyl-1-(4-((8-((R)-2-methylazetidin-1-yl)-5-((R)-1-(oxetan-3-ylmethoxy)ethyl)-2,7-naphthyridin-3-yl)amino)pyrimidin-2-yl)piperidin-4-ol or (3S,4R)-3-fluoro-3-methyl-1-(4-((8-((R)-2-methylazetidin-1-yl)-5-((S)-1-(oxetan-3-ylmethoxy)ethyl)-2,7-naphthyridin-3-yl)amino)pyrimidin-2-yl)piperidin-4-ol]: the half-inhibitory concentration (IC50) in assay [1] is above 50 nM; at EGFR (L858R T790M C797S) (setting [2]), 30 to 100 nM.

`C[C@@H]1CCN1c1ncc([C@@H](C)OCC2COC2)c2cc(Nc3ccnc(N4CC[C@@H](O)[C@@](C)(F)C4)n3)ncc12` (single isomer, unassigned) [Example 184, (3S,4R)-3-fluoro-3-methyl-1-(4-((8-((R)-2-methylazetidin-1-yl)-5-((R)-1-(oxetan-3-ylmethoxy)ethyl)-2,7-naphthyridin-3-yl)amino)pyrimidin-2-yl)piperidin-4-ol or (3S,4R)-3-fluoro-3-methyl-1-(4-((8-((R)-2-methylazetidin-1-yl)-5-((S)-1-(oxetan-3-ylmethoxy)ethyl)-2,7-naphthyridin-3-yl)amino)pyrimidin-2-yl)piperidin-4-ol]: the results for the IC50 (in assay [1]; on EGFR (L858R T790M C797S) (setting [2])) were 30 to 50 nM and 20 to 30 nM, respectively.
